Consider ten molecules from ChEMBL document CHEMBL1201862, “PubChem BioAssay data set” (2004).

SMILES strings stand for the structures. The source made the active and inactive calls.

The target in data set [1] is T1, Calpain-2 catalytic subunit (Sus scrofa, UniProt P43367).
T1 sequence (P43367 whole entry): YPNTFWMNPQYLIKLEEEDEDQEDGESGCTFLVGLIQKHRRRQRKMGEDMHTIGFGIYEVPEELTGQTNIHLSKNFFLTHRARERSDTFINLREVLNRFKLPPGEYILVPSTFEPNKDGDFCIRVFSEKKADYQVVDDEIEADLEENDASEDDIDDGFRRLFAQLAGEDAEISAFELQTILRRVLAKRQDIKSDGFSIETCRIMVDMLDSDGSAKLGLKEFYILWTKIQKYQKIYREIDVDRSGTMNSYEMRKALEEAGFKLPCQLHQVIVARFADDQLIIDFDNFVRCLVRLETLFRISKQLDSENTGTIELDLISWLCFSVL
The data set is described as follows: pig calpain II inhibitor potency, dose response, biochemical, fluorogenic peptide substrate (AID 1420). In kind it is functional.

Data set [2] in a line: cytotoxicity in A549 cells, dose response, cytotoxicity control, cell-based, CellTiter-Glo luminescence, cherry-pick (AID 743484). Format: functional.
Data set [3] in a line: cytotoxicity in HepG2 cells, dose response, cytotoxicity control, cell-based, CellTiter-Glo luminescence, cherry-pick, set 4 (AID 743480). In kind it is functional.
Data set [4] can be described thus: HEK293T cell cytotoxicity, dose response, cytotoxicity control, CellTiter-Glo luminescence, cherry-picked samples, set 4 (AID 743441). Format: functional, cell-based. Particulars: HEK293.
Data set [5] can be described thus: Artemis endonuclease inhibitor potency, dose response, biochemical, fluorescence intensity (AID 720701).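 Further: Artemis endonuclease enzyme.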 Format: functional.
A further data set concerns INS1. Put plainly: beta cell apoptosis inhibitors, cytokine rescue, dose response, luminescence, retest (AID 449756).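 Further: cell death triggered by IL-1 beta plus TNF-alpha plus IFN-gamma mixture; protective hits raise ATP signal compared with cytokine alone wells.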 Format: functional, cell-based. Particulars: Rattus norvegicus.
The nature of data set [6]: Shn3 3'UTR reporter inhibitors, dose response, cell-based, Clone20 osteoblasts, firefly luciferase, cherry-picked (AID 624132).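 Further: firefly luciferase luminescence from reporter carrying the Shn3 3'UTR in osteoblasts.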 Format: functional.
The nature of data set [7]: HepG2 cell cytotoxicity, dose response, cytotoxicity control for Shn3 inhibitor project, CellTiter-Glo, cherry-picked (AID 624134). Format: functional, cell-based.
The nature of data set [8]: control 3'UTR Renilla luciferase suppression, dose response, counter-screen for Shn3 inhibitor project, cell-based, Clone20-Shn3RL, cherry-picked (AID 624133). Format: functional.
Data set [9] is described as follows: reduction of Shn3 3'UTR firefly luciferase signal, dose response, Schnurri-3 inhibitor project, cell-based, Clone20 osteoblasts, cherry-pick, set 2 (AID 720490).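 Further: actives lower the luminescence signal as inhibitors.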 In kind it is functional.
A short description of data set [10]: inhibitors of control Renilla luciferase reporter, dose response, counter-screen for Shn3 3'UTR targeting project, Clone20-Shn3RL cells, dual-Glo, cherry-pick, set 2 (AID 720724). In kind it is functional, cell-based. Particulars: Dual-Go Shn3RL.
Another data set has as its target Cytochrome P450 3A4 (Homo sapiens, UniProt P08684).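 Further: CYP3A4 tested as one member of a cytochrome P450 panel screen.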
The nature of data set [11]: cells. In kind it is functional, cell-based.
Data set [12] is described as follows: cells. Format: functional, cell-based. This is another data set of the same source.
Data set [13] can be described thus: HEK293T cell cytotoxicity, dose response, cytotoxicity control for HIV Vif inhibitor project, cherry-picks (AID 652208). Format: functional, cell-based.
Another data set has as its target Paired box protein Pax-8 (Homo sapiens, UniProt Q06710). Put plainly: inhibitors of PAX8-driven TPO luciferase reporter, dose response, RMG-I cells, cherry-pick (AID 687027).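 Further: luciferase reporter driven by Pax8 target thyroperoxidase promoter measured by SteadyGlo luminescence.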 Format: functional, cell-based.
Data set [14] can be described thus: cytotoxicity in COV362 ovarian cancer cells, dose response, cytotoxicity control for PAX8 inhibitor project, cell-based, plate reader, dry powder, SA12 (AID 743144). Format: functional.
A short description of data set [15]: IOSE-T80 ovarian epithelial cell cytotoxicity, dose response, cytotoxicity control for PAX8 inhibitor project, plate reader, dry powder samples (AID 743045). In kind it is functional, cell-based.
Data set [16] in a line: NIH:OVCAR-3 ovarian cancer cell cytotoxicity, dose response, PAX8 inhibitor project, plate reader, dry powder samples (AID 743044). In kind it is functional, cell-based.
Data set [17] is described as follows: IGROV1 ovarian cancer cell cytotoxicity, dose response, PAX8 inhibitor project, plate reader, dry powder samples (AID 743043). Format: functional, cell-based. Particulars: IGROV-1.
Data set [18] in a line: cytotoxicity in OVCAR4 cells, dose response, cytotoxicity control for PAX8 inhibitor project, cell-based, plate reader, dry powder, SA11 (AID 743150). Particulars: OVCAR-4. Format: functional.
A short description of data set [19]: cytotoxicity in COV434 cells, dose response, cytotoxicity control for PAX8 inhibitor project, cell-based, plate reader, dry powder, SA7 (AID 743145). Format: functional.
Data set [20] can be described thus: cytotoxicity in OV-90 ovarian cancer cells, dose response, PAX8 inhibitor project, cell-based, plate reader, dry powder, SA8 (AID 743149). Format: functional.
The nature of data set [21]: non-specific cell cytotoxicity, dose response, cytotoxicity control for PAX8 inhibitor project, plate reader, dry powder samples (AID 743021). Format: functional, cell-based.
Data set [22] is described as follows: cytotoxicity dependent on PAX8, dose response, cell-based, plate reader, dry powder (AID 743049). In kind it is functional.
The target in the next data set is Large T antigen (Simian virus 40, UniProt P03070). Format: functional, Betapolyomavirus macacae.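 Further: Confirmatory-stage PubChem screen for compounds that inhibit SV40 T antigen.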
Data set [23] concerns the target T2, Mannose-6-phosphate isomerase (Homo sapiens, UniProt P34949).
T2 sequence (P34949 whole entry): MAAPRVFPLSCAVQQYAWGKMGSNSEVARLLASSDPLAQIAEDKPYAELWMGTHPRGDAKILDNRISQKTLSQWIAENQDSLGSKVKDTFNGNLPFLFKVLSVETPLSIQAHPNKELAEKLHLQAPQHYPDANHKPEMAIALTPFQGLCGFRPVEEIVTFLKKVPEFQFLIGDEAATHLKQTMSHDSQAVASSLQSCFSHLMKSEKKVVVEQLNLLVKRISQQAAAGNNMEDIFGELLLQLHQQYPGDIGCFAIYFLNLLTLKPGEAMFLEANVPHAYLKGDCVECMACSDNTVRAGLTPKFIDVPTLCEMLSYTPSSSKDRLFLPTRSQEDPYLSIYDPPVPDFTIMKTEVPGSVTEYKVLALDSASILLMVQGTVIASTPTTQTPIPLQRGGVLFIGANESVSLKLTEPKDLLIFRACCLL
The data set is described as follows: human PMI inhibitors, high substrate, primary screen, biochemical, fluorescence intensity, high mannose 6-phosphate (AID 1220).

Data set [24] deals with Glutathione-S-transferase (Schistosoma japonicum, UniProt Q26513). The data set is described as follows: biotin-GST/anti-GST TR-FRET signal inhibitors, dose response, artefact control for Vif-APOBEC3G degradation inhibitor project, biochemical (AID 1117362). In kind it is functional.
Data set [25] is described as follows: A375 melanoma cell viability loss, dose response, counter-screen for MITF inhibitor project, CellTiter-Glo luminescence, dry powder, set 4 (AID 624364).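 Further: A375 melanoma cells are MITF independent so this is a counter screen.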 Format: functional, cell-based. Particulars: A-375.
Data set [26] in a line: A375 melanoma cell cytotoxicity, dose response, counter-screen for MITF inhibitor project, CellTiter-Glo luminescence, dry powder, set 2 (AID 624489).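 Further: actives are compounds lowering A375 viability meaning general cytotoxicity.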 Particulars: A-375. In kind it is functional, cell-based.
Data set [27] is described as follows: NIH/3T3 fibroblast cytotoxicity, dose response, cytotoxicity control, cell-based, plate reader, dry powder, set 2 (AID 652280). Format: functional. Particulars: NIH3T3.
The nature of data set [28]: PAX2 cell-based inhibition, dose response, selectivity assay for PAX8 inhibitor project, plate reader, dry powder samples (AID 743048).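 Further: HEK293 cells carrying a WT1 promoter luciferase reporter driven by expressed Pax2; potency is for inhibition of Pax2 driven reporter signal.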 Format: functional.
A short description of data set [29]: PAX5 activity inhibitors, dose response, selectivity assay for PAX8 inhibitor project, cell-based, plate reader, dry powder samples (AID 743047).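 Further: HEK293 cells carrying a Pax5 driven CD19 promoter luciferase reporter; potency of inhibitors that lower reporter luminescence.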 Format: functional.
The nature of data set [30]: HIV Env cell-cell fusion inhibitors, dose response, HIV entry, plate reader, dry powder (AID 687023). Format: functional, cell-based.
Data set [31] is described as follows: CEM21 cell cytotoxicity, dose response, cytotoxicity control, plate reader, dry powder (AID 687026). In kind it is functional, cell-based.
Data set [32] is described as follows: inhibitors of intracellular T. cruzi replication, confirmation, NIH3T3 host cells, beta-gal luminescence (AID 2044).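 Further: intracellular parasites grown in NIH/3T3 mouse fibroblasts as host cells; luminescent beta-galactosidase reporter signal from transgenic T. cruzi replicating inside host cells; inhibitors lower the luminescence signal.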 In kind it is functional, cell-based.
A short description of data set [33]: cytotoxicity toward NIH3T3 fibroblasts, dose response, counter-screen, cell-based, ATP luminescence, mouse fibroblasts (AID 2010).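 Further: cells exposed to compound for about 90 hours before reading.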 Format: functional.
Data set [34] addresses DNA repair and recombination protein RAD54-like (Homo sapiens, UniProt Q92698). Put plainly: inhibitors of human RAD54 branch migration, confirmation, biochemical, fluorescence, cherry-picked samples, dose series (AID 651657). In kind it is functional.
In data set [35] the target is E3 ubiquitin-protein ligase UHRF1 (Homo sapiens, UniProt Q96T88). Put plainly: Counterscreen for inhibitors of 5-meCpG-binding domain protein 2 (MBD2): TRFRET-based biochemical high throughput dose response assay to identify inhibitors of binding of ubiquitin-like with PHD and ring finger domains 1 (UHRF1) to methylated oligonucleotide.
Chain of E3 ubiquitin-protein ligase UHRF1 (Q96T88 whole entry, the tested form may be a part): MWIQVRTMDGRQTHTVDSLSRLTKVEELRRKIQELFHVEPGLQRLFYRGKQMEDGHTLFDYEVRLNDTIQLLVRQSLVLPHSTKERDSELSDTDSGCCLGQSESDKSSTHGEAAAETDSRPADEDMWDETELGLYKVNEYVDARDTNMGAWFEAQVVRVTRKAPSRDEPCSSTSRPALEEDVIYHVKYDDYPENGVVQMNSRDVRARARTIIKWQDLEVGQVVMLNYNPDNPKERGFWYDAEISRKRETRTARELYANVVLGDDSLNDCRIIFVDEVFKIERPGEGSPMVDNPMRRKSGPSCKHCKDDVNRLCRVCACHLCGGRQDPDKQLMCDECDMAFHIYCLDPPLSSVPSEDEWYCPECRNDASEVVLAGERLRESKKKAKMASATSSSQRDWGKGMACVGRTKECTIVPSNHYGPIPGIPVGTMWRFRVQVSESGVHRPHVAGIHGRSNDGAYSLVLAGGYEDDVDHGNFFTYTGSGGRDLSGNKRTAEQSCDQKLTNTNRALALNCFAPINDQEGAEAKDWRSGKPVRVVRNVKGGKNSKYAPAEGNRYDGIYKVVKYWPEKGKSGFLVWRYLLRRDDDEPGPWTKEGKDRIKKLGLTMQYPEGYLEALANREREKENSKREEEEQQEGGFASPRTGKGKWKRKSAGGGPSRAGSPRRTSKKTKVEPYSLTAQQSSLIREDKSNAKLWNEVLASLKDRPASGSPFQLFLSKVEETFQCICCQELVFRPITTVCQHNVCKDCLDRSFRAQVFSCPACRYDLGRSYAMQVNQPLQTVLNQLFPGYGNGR

Chain of Paired box protein Pax-8 (Q06710 whole entry): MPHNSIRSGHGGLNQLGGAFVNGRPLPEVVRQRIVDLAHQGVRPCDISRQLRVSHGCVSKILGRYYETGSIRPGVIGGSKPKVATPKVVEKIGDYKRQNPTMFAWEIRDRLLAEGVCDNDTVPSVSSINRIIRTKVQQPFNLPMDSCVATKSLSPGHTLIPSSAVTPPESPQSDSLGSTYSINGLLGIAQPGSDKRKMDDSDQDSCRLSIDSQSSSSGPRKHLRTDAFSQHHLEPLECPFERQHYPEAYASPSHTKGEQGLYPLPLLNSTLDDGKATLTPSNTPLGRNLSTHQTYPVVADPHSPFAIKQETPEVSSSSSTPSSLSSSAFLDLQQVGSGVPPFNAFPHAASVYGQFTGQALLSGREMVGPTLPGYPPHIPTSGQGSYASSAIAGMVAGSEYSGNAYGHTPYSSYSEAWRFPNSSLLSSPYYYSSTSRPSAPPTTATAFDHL
Chain of Large T antigen (P03070 whole entry): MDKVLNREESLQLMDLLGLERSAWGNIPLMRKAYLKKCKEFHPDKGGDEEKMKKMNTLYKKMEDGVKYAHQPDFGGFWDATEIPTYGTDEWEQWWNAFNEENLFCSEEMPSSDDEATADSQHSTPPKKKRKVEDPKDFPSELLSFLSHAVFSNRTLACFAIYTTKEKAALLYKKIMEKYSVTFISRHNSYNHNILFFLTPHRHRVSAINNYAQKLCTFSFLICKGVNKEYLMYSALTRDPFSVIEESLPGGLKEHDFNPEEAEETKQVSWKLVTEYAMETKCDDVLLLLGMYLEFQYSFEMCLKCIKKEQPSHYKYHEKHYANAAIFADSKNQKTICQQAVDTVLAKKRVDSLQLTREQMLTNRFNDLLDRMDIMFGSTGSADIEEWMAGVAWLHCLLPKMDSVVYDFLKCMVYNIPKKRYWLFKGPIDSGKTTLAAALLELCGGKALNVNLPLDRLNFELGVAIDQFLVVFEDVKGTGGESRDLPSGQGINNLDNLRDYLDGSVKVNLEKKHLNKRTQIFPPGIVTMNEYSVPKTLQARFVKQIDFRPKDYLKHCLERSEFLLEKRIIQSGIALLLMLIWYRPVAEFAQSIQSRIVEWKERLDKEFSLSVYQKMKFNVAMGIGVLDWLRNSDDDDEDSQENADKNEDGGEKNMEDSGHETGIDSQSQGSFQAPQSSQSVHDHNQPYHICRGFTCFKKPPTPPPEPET
Chain of Cytochrome P450 3A4 (P08684 whole entry): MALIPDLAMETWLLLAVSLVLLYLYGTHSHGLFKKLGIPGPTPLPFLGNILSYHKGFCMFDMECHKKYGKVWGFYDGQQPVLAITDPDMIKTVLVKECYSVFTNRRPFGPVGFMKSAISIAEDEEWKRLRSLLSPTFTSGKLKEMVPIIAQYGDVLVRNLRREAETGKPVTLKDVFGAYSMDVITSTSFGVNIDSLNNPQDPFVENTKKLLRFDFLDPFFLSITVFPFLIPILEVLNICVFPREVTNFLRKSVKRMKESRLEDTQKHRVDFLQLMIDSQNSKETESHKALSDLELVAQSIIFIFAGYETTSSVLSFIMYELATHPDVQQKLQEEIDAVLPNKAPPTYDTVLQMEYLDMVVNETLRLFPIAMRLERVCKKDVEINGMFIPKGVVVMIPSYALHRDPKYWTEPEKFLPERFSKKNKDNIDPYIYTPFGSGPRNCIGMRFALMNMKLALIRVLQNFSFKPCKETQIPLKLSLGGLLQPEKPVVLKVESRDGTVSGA
Chain of Glutathione-S-transferase (Q26513 whole entry): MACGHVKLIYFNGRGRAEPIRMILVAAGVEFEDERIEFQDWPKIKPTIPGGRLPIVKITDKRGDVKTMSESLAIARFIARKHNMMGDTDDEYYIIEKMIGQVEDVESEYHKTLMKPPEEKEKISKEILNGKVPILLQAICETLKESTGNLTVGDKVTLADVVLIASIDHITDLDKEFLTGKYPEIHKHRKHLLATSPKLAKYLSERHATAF
Chain of DNA repair and recombination protein RAD54-like (Q92698 whole entry, the tested form may be a part): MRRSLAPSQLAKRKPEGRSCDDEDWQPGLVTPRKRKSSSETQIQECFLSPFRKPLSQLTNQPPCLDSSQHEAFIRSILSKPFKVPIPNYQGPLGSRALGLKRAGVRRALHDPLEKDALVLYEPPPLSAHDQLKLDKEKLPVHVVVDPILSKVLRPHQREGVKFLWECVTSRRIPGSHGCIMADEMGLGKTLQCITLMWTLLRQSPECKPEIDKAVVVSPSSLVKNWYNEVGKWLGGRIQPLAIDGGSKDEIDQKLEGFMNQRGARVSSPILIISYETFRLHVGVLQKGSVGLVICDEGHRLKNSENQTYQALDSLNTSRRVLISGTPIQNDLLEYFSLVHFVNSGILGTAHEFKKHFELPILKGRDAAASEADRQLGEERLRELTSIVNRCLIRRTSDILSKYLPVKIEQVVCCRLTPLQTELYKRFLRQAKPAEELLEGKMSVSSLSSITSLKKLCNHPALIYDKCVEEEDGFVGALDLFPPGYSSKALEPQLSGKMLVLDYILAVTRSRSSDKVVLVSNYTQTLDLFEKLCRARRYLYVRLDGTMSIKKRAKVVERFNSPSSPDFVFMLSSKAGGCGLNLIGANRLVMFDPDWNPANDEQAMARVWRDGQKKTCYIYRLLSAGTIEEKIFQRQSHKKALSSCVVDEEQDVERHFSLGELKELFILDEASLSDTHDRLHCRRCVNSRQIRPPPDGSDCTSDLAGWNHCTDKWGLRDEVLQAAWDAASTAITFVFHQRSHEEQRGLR

With `O=C(COC(=O)c1cccc(O)c1)Nc1ccc(Cl)cc1C(=O)c1ccccc1`, in [1], the IC50 is 17.9 µM (not active). Besides, the results for the concentration at half-maximal activity (AC50) in data set [2], in data set [3] and in [4] were 32.3 µM (active), > 52 µM (inactive) and > 52 µM (inactive), respectively.
As to `O=C(Nc1nc2n(n1)C(c1ccccc1)CC(c1ccc(Cl)cc1)N2)c1ccco1` (stereo unspecified), in data set [5], the IC50 was 18.7 µM (active).
For `Cc1ccc(-c2csc(N3CCC(NS(=O)(=O)c4ccc5c(c4)OCCO5)CC3)n2)cc1`, the AC50 is 5.51 µM (active) with INS1; 2.15 µM (active) in [6]; > 70 µM (inactive) in data set [7]; 15 µM (active) in data set [8]; 3.03 µM (active) in data set [9]; 21.6 µM (active) in data set [10]. Further, the AC50 entry on Cytochrome P450 3A4 was “inconclusive”.
In the case of `COc1ccc(-c2cc(C(F)(F)F)nc(S(=O)(=O)CCCC(=O)Nc3cc(C)on3)n2)cc1OC`, the EC50 in “cells [11]” and in the data set “cells [12]” was > 350 µM (not active) in each case. The AC50 in data set [13] is 13.7 µM (active); at Paired box protein Pax-8, 9.94 µM (active); in [14], 21.2 µM (active); in data set [15], 29.4 µM (active); in data set [16], 20.7 µM (active); in data set [17], 13.4 µM (active). Besides, the concentration at half-maximal activity (AC50) in data set [18] is 27.7 µM (active); in data set [19], 15.2 µM (active); in [20], 30.1 µM (active); in data set [21] it was 23.1 µM (active); in data set [22], 16.2 µM (active).
Turning to `CN(C(=S)Nc1cccnc1)c1ccc(O)cc1`, the half-inhibitory concentration (IC50) on Large T antigen was 58.4 µM (active); in data set [23], > 50 µM (not active); in data set [24], > 100 µM (active).
As for `CN1CCN(C2=C(NS(=O)(=O)c3ccc(Br)cc3)C(=O)c3ccccc3C2=O)CC1`, the AC50 in data set [25] and in data set [26] was > 70 µM (inactive) in each case.
As to `Cc1cccc(-c2ccc([C@H]3[C@H](CO)N4CCCCN(Cc5ccncc5)C[C@@H]34)cc2)c1`, in data set [27], the AC50 was 8.54 µM (active).
With `N#C[C@H]1[C@@H](c2ccc(C3=CCCC3)cc2)[C@@H](CO)N1C(=O)NC1CCCCC1`, the AC50 in data set [28] is 52.1 µM (active); in data set [29], > 70 µM (inactive); in [19], > 70 µM (inactive); in [22], 61.5 µM (active).
With `Cc1noc(C)c1S(=O)(=O)Nc1cccc2c1O[C@H](CN(C)Cc1ccc(C(F)(F)F)cc1)[C@H](C)CN([C@@H](C)CO)C2=O`, the AC50 in data set [30] is 10.6 µM (active); in data set [31], > 70 µM (inactive).
`Cc1ccc2nc(Cl)c3cc(C(=O)NCCCN4CCCC4)sc3c2c1`: the concentration for a half-maximal effect (EC50) was 1.65 µM (active) in data set [32] and 9.72 µM (active) in [33]. In addition, the AC50 in data set [34] was 11.4 µM (active). The IC50 in [35] was > 43.8 µM (inactive).
